target: T1, human H1 (Homo sapiens, UniProt P35367); test: In vitro histamine H1 receptor cell-based aequorin bioluminescence antagonist assay; settings: CHO-K1 cells expressing human H1 and aequorin; histamine at EC80; read-out: H1 Antagonist EC50
T1 construct: host or cells: CHO-K1, also expressing mitochondrion-targeted aequorin
Protocol: In vitro Histamine Receptor Cell-Based Assays
The cell-based assays utilize an aequorin dependent bioluminescence signal. Doubly-transfected, stable CHO—K1 cell lines expressing human H1 or H4, mitochondrion-targeted aequorin, and (H4 only) human G protein Gα16 are obtained from Perkin-Elmer. Cells are maintained in F12 (Ham's) growth medium, containing 10% (vol./vol.) fetal bovine serum, penicillin (100 IU/mL), streptomycin (0.1 mg/mL), zeocin (0.25 mg/mL) and geneticin (0.40 mg/mL). Cell media components are from Invitrogen, Inc. One day prior to assay, the growth medium is replaced with the same, excluding zeocin and geneticin.
For assay preparation, growth medium is aspirated, and cells are rinsed with calcium-free, magnesium-free phosphate-buffered saline, followed by two to three minute incubation in Versene (Invitrogen, Inc.) at 37° C. Assay medium (DMEM:F12 [50:50], phenol-red free, containing 1 mg/mL protease-free bovine serum albumin) is added to collect the released cells, which are then centrifuged. The cell pellet is re-suspended in assay medium, centrifuged once more, and re-suspended in assay medium to a final density of 5×10^6 cells/mL. Coelenterazine-h dye (500 μM in ethanol) is added to a final concentration of 5 μM, and mixed immediately. The conical tube containing the cells is then wrapped with foil to protect the light-sensitive dye. The cells are incubated for four hours further at room temperature (approximately 21° C.) with end-over-end rotation to keep them in suspension.
Just before assay, the dye-loaded cells are diluted to 0.75×10^6 cells/mL (H1 receptor) or 1.5×10^6 cells/mL (H4 receptor) with additional assay medium. Cells are dispensed to 1536 well micro-titer plates at 3 μL/well. To assay receptor antagonism, 60 nl of 100× concentration test compounds in 100% dimethyl sulfoxide (DMSO) are dispensed to the wells, one compound per well, by passive pin transfer, and the plates are incubated for 15 minutes at room temperature. […] The pipette dispenses 3 μL/well of agonist (histamine, at twice the final concentration, where final concentration is a previously determined EC80) in assay medium, with concurrent bioluminescence detection. Agonist activity of test compounds is excluded by separate assays that measure response to test compounds immediately, without added histamine agonist.
CCD image capture on the Lumilux includes a 5 second baseline read prior to agonist addition, and generally a 40 second read per plate after agonist addition. A decrease in bioluminescence signal (measured either as area-under-the-curve, or maximum signal amplitude minus minimum signal amplitude) correlates with receptor antagonism in a dose dependent manner. The negative control is DMSO lacking any test compound. For antagonist assays, the positive controls are diphenhydramine (2-Diphenylmethoxy-N,N-dimethylethylamine, 10 μM final concentration, H1 receptor) or JNJ7777120 (1-[(5-Chloro-1H-indol-2-yl)carbonyl]-4-methyl-piperazine, 10 μM final concentration, H4 receptor). Efficacy is measured as a percentage of positive control activity.

T1 sequence (P35367 whole entry): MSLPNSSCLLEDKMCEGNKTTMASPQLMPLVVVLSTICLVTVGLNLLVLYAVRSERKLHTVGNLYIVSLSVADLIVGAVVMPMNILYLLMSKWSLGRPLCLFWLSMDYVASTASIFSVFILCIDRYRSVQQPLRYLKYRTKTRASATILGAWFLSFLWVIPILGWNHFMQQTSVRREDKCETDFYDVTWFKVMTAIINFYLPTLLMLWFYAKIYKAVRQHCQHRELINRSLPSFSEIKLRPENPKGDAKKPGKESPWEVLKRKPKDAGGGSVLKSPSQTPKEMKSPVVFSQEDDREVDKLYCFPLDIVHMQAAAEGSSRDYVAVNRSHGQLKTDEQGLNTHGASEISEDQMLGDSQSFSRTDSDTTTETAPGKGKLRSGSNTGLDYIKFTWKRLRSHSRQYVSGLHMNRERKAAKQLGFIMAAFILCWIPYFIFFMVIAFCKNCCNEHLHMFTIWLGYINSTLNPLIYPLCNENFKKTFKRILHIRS

Row | Compound | EC50 [µM]
1 | Cc1csc2ncnc(NCCc3ccc(F)cc3)c12 [Example 17] | > 10
2 | Cc1csc2ncnc(NCc3cccs3)c12 [Example 87, 5-methyl-N-(thiophen-2-ylmethyl)thieno[2,3-d]pyrimidin-4-amine] | > 10
3 | OCCCCNc1ncnc2scc(-c3ccccc3)c12 [Example 312, 4-(5-phenylthieno[2,3-d]pyrimidin-4-ylamino)butan-1-ol] | > 10
4 | Clc1ccccc1CCNc1ncnc2sc3c(c12)CCCC3 [Example 297] | > 10
5 | Cc1csc2ncnc(NCc3cccc(C(F)(F)F)c3)c12 [Example 165, 5-methyl-N-{[3-(trifluoromethyl)phenyl]methyl}thieno[2,3-d]pyrimidin-4-amine] | > 10
6 | CCOC(=O)C1CCN(c2ncnc3scc(C)c23)CC1 [Example 44, ethyl 1-{5-methylthieno[2,3-d]pyrimidin-4-yl}piperidine-4-carboxylate] | > 10
7 | Cc1csc2ncnc(NCCC(c3ccccc3)c3ccccc3)c12 [Example 176, N-(3,3-diphenylpropyl)-5-methylthieno[2,3-d]pyrimidin-4-amine] | > 10
8 | Cc1sc2ncnc(N3CCN(S(=O)(=O)c4ccc(C(C)(C)C)cc4)CC3)c2c1C [Example 310, 4-(4-(4-tert-butylphenylsulfonyl)piperazin-1-yl)-5,6-dimethylthieno[2,3-d]pyrimidine] | > 10
9 | Cc1ccc(C)c(CNc2ncnc3scc(C)c23)c1 [Example 113, N-[(2,5-dimethylphenyl)methyl]-5-methylthieno[2,3-d]pyrimidin-4-amine] | > 10
10 | CCOC(=O)N1CCC(Nc2ncnc3scc(C)c23)CC1 [Example 162, ethyl 4-({5-methylthieno[2,3-d]pyrimidin-4-yl}amino)piperidine-1-carboxylate] | > 10
11 | Cc1csc2ncnc(NC3CCCCCC3)c12 [Example 90, N-cycloheptyl-5-methylthieno[2,3-d]pyrimidin-4-amine] | > 10
12 | Clc1ccc(CCNc2ncnc3sc4c(c23)CCCC4)c(Cl)c1 [Example 313] | > 10
13 | COc1ccc(CCNc2nc(C)nc3sc(C)c(C)c23)cc1OC [Example 296, N-(3,4-dimethoxyphenethyl)-2,5,6-trimethylthieno[2,3-d]pyrimidin-4-amine] | > 10
14 | Cc1cccc(CNc2ncnc3scc(C)c23)c1 [Example 95, 5-methyl-N-[(3-methylphenyl)methyl]thieno[2,3-d]pyrimidin-4-amine] | > 10
15 | Cc1csc2ncnc(N3CCN(CCN4CCOCC4)CC3)c12 [Example 269, 4-[2-(4-{5-methylthieno[2,3-d]pyrimidin-4-yl}piperazin-1-yl)ethyl]morpholine] | > 10
16 | Cc1csc2ncnc(N3CCN(C(=O)OC(C)(C)C)CC3)c12 [Example 250, tert-butyl 4-{5-methylthieno[2,3-d]pyrimidin-4-yl}piperazine-1-carboxylate] | > 10
17 | Cc1csc2ncnc(NCc3ccccc3Cl)c12 [Example 130, N-[(2-chlorophenyl)methyl]-5-methylthieno[2,3-d]pyrimidin-4-amine] | > 10
18 | Cc1csc2ncnc(NCc3cc(F)cc(F)c3)c12 [Example 135, N-[(3,5-difluorophenyl)methyl]-5-methylthieno[2,3-d]pyrimidin-4-amine] | > 10
19 | c1ccc(CC2CCN(c3ncnc4sccc34)CC2)cc1 [Example 302, 4-(4-benzylpiperidin-1-yl)thieno[2,3-d]pyrimidine] | > 10
20 | Cc1csc2ncnc(C(=O)CCc3ccc(Cl)cc3)c12 [Example 25, 3-(4-chlorophenyl)-1-(5-methylthieno[2,3-d]pyrimidin-4-yl)propan-1-one] | > 10
21 | Cc1csc2ncnc(N3CCN(C)CC3)c12 [Example 192, 1-methyl-4-{5-methylthieno[2,3-d]pyrimidin-4-yl}piperazine] | > 10
22 | Cc1sc2ncnc(N3CCC(C(=O)OCc4ccc(C#N)cc4)CC3)c2c1C [Example 306, 4-cyanobenzyl 1-(5,6-dimethylthieno[2,3-d]pyrimidin-4-yl)piperidine-4-carboxylate] | > 10

Now from value to molecule:

Row | EC50 [µM] | Compound
23 | > 10 | Cc1cccc(CCNc2ncnc3scc(C)c23)c1 [Example 20]
24 | > 10 | Cc1csc2ncnc(N3CCC(NC(=O)OC(C)(C)C)C3)c12 (stereo not shown) [Example 251, tert-butyl N-(1-{5-methylthieno[2,3-d]pyrimidin-4-yl}pyrrolidin-3-yl)carbamate]
25 | > 10 | Cc1csc2ncnc(NCCc3ccccc3Cl)c12 [Example 148, N-[2-(2-chlorophenyl)ethyl]-5-methylthieno[2,3-d]pyrimidin-4-amine]
26 | > 10 | COC[C@@H]1CCCN1c1ncnc2scc(C)c12 [Example 205, (2S)-2-(methoxymethyl)-1-{5-methylthieno[2,3-d]pyrimidin-4-yl}pyrrolidine]
27 | > 10 | CCC1CCC(Nc2ncnc3scc(C)c23)CC1 (stereo not shown) [Example 22, (4-Ethylcyclohexyl)(5-methylthiopheno[3,2-e]pyrimidin-4-yl)amine]
28 | > 10 | Cc1csc2ncnc(NC3CCCC(C)C3)c12 (stereo not shown) [Example 41, 5-methyl-N-(3-methylcyclohexyl)thieno[2,3-d]pyrimidin-4-amine]
29 | > 10 | Cc1csc2ncnc(NCCc3c[nH]c4ccccc34)c12 [Example 155, N-[2-(1H-indol-3-yl)ethyl]-5-methylthieno[2,3-d]pyrimidin-4-amine]
30 | > 10 | Cc1csc2ncnc(N3CCCCC3C)c12 (stereo not shown) [Example 190, 2-methyl-1-{5-methylthieno[2,3-d]pyrimidin-4-yl}piperidine]
31 | > 10 | Cc1ccc(CCNc2ncnc3scc(C)c23)cc1 [Example 19]
32 | > 10 | Cc1csc2ncnc(N(CCO)Cc3ccccc3)c12 [Example 226, 2-[benzyl({5-methylthieno[2,3-d]pyrimidin-4-yl})amino]ethan-1-ol]
33 | > 10 | COc1ccc(CNc2ncnc3scc(C)c23)cc1OC [Example 160, N-[(3,4-dimethoxyphenyl)methyl]-5-methylthieno[2,3-d]pyrimidin-4-amine]
34 | > 10 | Cc1csc2ncnc(NCc3ccc(F)cc3F)c12 [Example 133, N-[(2,4-difluorophenyl)methyl]-5-methylthieno[2,3-d]pyrimidin-4-amine]
35 | > 10 | Cc1csc2ncnc(NC(C)CCc3ccccc3)c12 (stereo not shown) [Example 139, 5-methyl-N-(4-phenylbutan-2-yl)thieno[2,3-d]pyrimidin-4-amine]
36 | > 10 | Cc1csc2ncnc(N[C@H](C)c3ccccc3)c12 [Example 97, 5-methyl-N-[(1R)-1-phenylethyl]thieno[2,3-d]pyrimidin-4-amine]
37 | > 10 | COc1cccc(CNc2ncnc3scc(C)c23)c1 [Example 125, N-[(3-methoxyphenyl)methyl]-5-methylthieno[2,3-d]pyrimidin-4-amine]
38 | > 10 | Cc1ccc(CNc2ncnc3scc(C)c23)cc1C [Example 118, N-[(3,4-dimethylphenyl)methyl]-5-methylthieno[2,3-d]pyrimidin-4-amine]
39 | > 10 | Cc1csc2ncnc(NCCc3ccc(O)cc3)c12 [Example 121, 4-[2-({5-methylthieno[2,3-d]pyrimidin-4-yl}amino)ethyl]phenol]
40 | > 10 | COc1ccccc1CCNc1ncnc2scc(C)c12 [Example 145, N-[2-(2-methoxyphenyl)ethyl]-5-methylthieno[2,3-d]pyrimidin-4-amine]

— US20100063047A1 (KALYPSYS, INC., priority 2008, published 2010)
